Results from ChEMBL document CHEMBL4507279, “Data for DCP probe BI-9627” (2021).

What was measured:
[1] = target: Megakaryocyte-associated tyrosine-protein kinase (Homo sapiens) (UniProt P42679); details: Compound concentration 1000.0 nM
[2] = target: LIM domain kinase 2 (Homo sapiens) (UniProt P53671); details: Compound concentration 1000.0 nM
[3] = target: Ribosomal protein S6 kinase alpha-1 (Homo sapiens) (UniProt Q15418); details: Compound concentration 1000.0 nM
[4] = target: Phosphatidylinositol 3-kinase C2 domain-containing subunit gamma (Homo sapiens) (UniProt O75747); details: Compound concentration 1000.0 nM
Chain of Phosphatidylinositol 3-kinase C2 domain-containing subunit gamma (Homo sapiens) (O75747 whole entry, the tested form may be a part): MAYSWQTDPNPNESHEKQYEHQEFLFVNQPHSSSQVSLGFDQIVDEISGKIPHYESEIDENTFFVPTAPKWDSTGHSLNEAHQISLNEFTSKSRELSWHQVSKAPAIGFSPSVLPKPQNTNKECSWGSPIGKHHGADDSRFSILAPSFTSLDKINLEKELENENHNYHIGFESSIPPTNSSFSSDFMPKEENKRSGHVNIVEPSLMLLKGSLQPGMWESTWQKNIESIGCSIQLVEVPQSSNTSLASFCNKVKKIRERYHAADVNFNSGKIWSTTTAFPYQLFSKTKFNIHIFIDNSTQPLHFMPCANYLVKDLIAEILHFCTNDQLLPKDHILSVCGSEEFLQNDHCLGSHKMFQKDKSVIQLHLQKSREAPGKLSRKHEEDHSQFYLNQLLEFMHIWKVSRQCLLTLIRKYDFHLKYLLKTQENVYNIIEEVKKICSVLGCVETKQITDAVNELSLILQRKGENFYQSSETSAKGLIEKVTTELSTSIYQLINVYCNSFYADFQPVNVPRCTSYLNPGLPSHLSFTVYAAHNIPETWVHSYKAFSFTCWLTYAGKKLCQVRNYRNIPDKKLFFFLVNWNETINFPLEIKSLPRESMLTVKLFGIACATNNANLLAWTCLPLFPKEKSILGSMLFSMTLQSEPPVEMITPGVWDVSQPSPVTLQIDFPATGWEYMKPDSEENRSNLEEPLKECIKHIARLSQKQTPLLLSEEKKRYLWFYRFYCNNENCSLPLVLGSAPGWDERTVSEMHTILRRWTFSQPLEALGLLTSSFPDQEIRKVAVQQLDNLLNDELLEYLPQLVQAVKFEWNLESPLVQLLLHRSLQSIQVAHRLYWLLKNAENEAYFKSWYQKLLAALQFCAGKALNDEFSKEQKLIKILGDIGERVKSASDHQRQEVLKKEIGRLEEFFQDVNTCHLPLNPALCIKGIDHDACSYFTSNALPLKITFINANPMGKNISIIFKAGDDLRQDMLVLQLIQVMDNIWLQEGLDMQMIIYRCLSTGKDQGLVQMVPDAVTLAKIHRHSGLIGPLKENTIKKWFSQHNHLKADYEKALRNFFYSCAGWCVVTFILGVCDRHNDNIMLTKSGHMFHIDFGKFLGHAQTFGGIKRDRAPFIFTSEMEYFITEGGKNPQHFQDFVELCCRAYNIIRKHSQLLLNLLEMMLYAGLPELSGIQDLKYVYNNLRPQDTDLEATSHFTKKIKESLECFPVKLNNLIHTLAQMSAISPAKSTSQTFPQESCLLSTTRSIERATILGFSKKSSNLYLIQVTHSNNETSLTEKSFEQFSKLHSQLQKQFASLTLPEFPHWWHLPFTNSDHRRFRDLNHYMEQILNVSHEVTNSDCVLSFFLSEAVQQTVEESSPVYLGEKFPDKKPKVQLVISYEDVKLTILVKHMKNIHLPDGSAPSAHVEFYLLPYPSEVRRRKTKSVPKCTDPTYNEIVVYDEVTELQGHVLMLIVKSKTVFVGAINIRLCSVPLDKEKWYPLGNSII

[5] = target: Calcium/calmodulin-dependent protein kinase type 1G (Homo sapiens) (UniProt Q96NX5); details: Compound concentration 1000.0 nM
[6] = target: Mitogen-activated protein kinase 8 (Homo sapiens) (UniProt P45983); details: Compound concentration 1000.0 nM
[7] = target: Serine/threonine-protein kinase 36 (Homo sapiens) (UniProt Q9NRP7); details: Compound concentration 1000.0 nM
[8] = target: Serine/threonine-protein kinase SIK2 (Homo sapiens) (UniProt Q9H0K1); details: Compound concentration 1000.0 nM
[9] = target: 5'-AMP-activated protein kinase catalytic subunit alpha-2 (Homo sapiens) (UniProt P54646); details: Compound concentration 1000.0 nM
[10] = target: Cytoplasmic tyrosine-protein kinase BMX (Homo sapiens) (UniProt P51813); details: Compound concentration 1000.0 nM
[11] = target: Serine/threonine-protein kinase ULK3 (Homo sapiens) (UniProt Q6PHR2); details: Compound concentration 1000.0 nM
[12] = target: Serine/threonine-protein kinase WNK1 (Homo sapiens) (UniProt Q9H4A3); details: Compound concentration 1000.0 nM
[13] = target: Receptor-type tyrosine-protein kinase FLT3 (Homo sapiens) (UniProt P36888); details: Compound concentration 1000.0 nM
[14] = target: Activated CDC42 kinase 1 (Homo sapiens) (UniProt Q07912); details: Compound concentration 1000.0 nM
[15] = target: Tyrosine-protein kinase ITK/TSK (Homo sapiens) (UniProt Q08881); details: Compound concentration 1000.0 nM
[16] = target: Dual specificity mitogen-activated protein kinase kinase 6 (Homo sapiens) (UniProt P52564); details: Compound concentration 1000.0 nM
Chain of Dual specificity mitogen-activated protein kinase kinase 6 (Homo sapiens) (P52564 whole entry): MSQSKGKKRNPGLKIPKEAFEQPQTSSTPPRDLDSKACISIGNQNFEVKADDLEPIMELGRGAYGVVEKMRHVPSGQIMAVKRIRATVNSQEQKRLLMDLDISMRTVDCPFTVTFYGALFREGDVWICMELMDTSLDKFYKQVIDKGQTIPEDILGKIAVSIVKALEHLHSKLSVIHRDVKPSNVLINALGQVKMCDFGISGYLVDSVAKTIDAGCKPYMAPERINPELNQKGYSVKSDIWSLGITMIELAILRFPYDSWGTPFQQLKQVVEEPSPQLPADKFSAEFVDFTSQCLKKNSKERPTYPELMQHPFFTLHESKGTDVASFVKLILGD

[17] = target: Serine/threonine-protein kinase Nek3 (Homo sapiens) (UniProt P51956); details: Compound concentration 1000.0 nM
[18] = target: T1, Alpha-2A adrenergic receptor (Homo sapiens) (UniProt P08913); details: Compound concentration 10.0 uM
T1 sequence (whole entry): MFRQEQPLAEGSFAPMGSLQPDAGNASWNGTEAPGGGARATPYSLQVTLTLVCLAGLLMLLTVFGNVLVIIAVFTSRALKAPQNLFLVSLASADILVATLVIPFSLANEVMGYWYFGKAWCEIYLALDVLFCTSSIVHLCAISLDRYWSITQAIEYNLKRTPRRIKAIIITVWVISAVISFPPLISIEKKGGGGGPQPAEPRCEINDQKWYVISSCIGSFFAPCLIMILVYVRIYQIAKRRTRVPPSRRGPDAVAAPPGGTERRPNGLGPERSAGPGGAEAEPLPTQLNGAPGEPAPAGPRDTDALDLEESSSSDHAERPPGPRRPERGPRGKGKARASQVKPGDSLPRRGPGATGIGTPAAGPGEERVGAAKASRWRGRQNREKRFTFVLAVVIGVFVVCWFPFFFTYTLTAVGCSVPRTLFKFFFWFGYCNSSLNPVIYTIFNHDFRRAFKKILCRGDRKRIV

[19] = target: Myosin light chain kinase, smooth muscle (Homo sapiens) (UniProt Q15746); details: Compound concentration 1000.0 nM
[20] = target: Calcium/calmodulin-dependent protein kinase type 1D (Homo sapiens) (UniProt Q8IU85); details: Compound concentration 1000.0 nM
[21] = target: Ribosomal protein S6 kinase beta-1 (Homo sapiens) (UniProt P23443); details: Compound concentration 1000.0 nM
[22] = target: Rho-associated protein kinase 2 (Homo sapiens) (UniProt O75116); details: Compound concentration 1000.0 nM
[23] = target: Serine/threonine-protein kinase haspin (Homo sapiens) (UniProt Q8TF76); details: Compound concentration 1000.0 nM
[24] = target: Serine/threonine-protein kinase PAK 5 (Homo sapiens) (UniProt Q9P286); details: Compound concentration 1000.0 nM
Chain of Serine/threonine-protein kinase PAK 5 (Homo sapiens) (Q9P286 whole entry, looked up): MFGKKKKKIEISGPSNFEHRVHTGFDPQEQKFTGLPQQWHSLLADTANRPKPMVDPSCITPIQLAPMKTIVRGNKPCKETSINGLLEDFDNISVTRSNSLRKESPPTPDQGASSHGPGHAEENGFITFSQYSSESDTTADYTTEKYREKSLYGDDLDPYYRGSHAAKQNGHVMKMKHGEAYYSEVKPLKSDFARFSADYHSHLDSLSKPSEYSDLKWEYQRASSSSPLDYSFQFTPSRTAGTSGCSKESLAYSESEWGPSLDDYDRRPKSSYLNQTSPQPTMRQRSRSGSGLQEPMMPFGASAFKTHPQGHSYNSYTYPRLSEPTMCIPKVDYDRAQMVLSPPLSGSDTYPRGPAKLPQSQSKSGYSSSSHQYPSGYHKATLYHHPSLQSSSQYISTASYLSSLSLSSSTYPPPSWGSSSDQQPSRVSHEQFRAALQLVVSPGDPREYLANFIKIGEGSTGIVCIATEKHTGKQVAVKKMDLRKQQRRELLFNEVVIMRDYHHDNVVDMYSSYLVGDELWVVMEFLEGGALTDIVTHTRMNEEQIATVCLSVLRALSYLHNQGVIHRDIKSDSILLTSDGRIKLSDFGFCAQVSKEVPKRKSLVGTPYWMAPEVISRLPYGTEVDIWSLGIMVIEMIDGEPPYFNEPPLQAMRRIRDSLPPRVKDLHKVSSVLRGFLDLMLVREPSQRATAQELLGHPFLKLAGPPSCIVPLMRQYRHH

[25] = target: Eukaryotic translation initiation factor 2-alpha kinase 1 (Homo sapiens) (UniProt Q9BQI3); details: Compound concentration 1000.0 nM
Chain of Eukaryotic translation initiation factor 2-alpha kinase 1 (Homo sapiens) (Q9BQI3 whole entry): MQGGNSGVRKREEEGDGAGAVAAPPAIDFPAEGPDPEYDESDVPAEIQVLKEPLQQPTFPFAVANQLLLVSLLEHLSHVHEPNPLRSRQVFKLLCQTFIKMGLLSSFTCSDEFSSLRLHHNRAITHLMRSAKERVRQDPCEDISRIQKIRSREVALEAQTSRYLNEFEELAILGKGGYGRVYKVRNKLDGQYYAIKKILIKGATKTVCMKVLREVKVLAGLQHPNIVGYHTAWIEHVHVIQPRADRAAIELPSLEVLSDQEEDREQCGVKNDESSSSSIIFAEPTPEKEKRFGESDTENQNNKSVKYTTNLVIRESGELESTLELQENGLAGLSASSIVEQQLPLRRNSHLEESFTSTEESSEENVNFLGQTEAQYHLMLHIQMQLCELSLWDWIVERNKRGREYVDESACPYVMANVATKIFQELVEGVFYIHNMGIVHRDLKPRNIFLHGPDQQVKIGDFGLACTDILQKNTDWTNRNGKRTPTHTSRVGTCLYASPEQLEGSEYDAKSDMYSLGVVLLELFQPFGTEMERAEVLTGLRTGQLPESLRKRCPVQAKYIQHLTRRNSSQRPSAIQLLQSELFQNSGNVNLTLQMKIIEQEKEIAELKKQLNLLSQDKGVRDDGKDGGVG

[26] = target: Serine/threonine-protein kinase MARK2 (Homo sapiens) (UniProt Q7KZI7); details: Compound concentration 1000.0 nM
[27] = tested on: Epidermal growth factor receptor (Homo sapiens), P00533 [UNDEFINED MUTATION]; details: Compound concentration 1000.0 nM
[28] = target: Calcium/calmodulin-dependent protein kinase type IV (Homo sapiens) (UniProt Q16566); details: Compound concentration 1000.0 nM
Chain of Calcium/calmodulin-dependent protein kinase type IV (Homo sapiens) (Q16566 whole entry): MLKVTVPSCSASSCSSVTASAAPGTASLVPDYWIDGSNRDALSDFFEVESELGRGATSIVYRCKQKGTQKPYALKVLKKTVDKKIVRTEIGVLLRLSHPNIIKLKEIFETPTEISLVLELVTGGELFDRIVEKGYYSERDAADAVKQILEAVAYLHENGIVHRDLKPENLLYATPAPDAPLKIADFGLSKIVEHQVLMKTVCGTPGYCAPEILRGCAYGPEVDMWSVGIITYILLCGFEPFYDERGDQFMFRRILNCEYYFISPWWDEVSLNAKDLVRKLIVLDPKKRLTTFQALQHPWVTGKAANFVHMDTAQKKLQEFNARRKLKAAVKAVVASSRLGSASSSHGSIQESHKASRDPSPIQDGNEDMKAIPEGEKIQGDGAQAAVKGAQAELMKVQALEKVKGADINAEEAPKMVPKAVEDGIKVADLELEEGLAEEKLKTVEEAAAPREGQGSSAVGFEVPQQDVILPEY

[29] = tested on: Receptor-type tyrosine-protein kinase FLT3 (Homo sapiens), P36888 [UNDEFINED MUTATION]; details: Compound concentration 1000.0 nM
[30] = target: BMP-2-inducible protein kinase (Homo sapiens) (UniProt Q9NSY1); details: Compound concentration 1000.0 nM
[31] = target: Serine/threonine-protein kinase DCLK2 (Homo sapiens) (UniProt Q8N568); details: Compound concentration 1000.0 nM
Chain of Serine/threonine-protein kinase DCLK2 (Homo sapiens) (Q8N568 whole entry): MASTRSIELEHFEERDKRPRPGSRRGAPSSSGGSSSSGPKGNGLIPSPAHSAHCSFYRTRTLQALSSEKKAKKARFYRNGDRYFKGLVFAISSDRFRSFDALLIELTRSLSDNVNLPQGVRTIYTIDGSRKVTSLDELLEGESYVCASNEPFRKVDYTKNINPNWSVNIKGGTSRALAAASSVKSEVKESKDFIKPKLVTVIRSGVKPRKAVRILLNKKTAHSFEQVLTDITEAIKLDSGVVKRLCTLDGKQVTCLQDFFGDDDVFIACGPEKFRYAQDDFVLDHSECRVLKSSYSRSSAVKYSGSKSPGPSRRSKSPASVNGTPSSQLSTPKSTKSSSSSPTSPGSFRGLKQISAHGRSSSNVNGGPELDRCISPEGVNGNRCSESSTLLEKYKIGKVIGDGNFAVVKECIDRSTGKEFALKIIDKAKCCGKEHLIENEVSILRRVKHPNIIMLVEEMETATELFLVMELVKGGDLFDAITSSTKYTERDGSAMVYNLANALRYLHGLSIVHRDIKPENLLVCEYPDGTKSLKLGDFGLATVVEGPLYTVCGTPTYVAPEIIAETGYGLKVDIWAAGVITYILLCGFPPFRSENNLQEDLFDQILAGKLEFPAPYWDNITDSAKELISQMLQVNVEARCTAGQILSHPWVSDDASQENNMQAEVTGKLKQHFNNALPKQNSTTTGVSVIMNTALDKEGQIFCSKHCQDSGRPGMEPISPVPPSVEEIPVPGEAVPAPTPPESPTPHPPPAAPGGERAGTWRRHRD

[32] = target: Serine/threonine-protein kinase Chk1 (Homo sapiens) (UniProt O14757); details: Compound concentration 1000.0 nM
Chain of Serine/threonine-protein kinase Chk1 (Homo sapiens) (O14757 whole entry): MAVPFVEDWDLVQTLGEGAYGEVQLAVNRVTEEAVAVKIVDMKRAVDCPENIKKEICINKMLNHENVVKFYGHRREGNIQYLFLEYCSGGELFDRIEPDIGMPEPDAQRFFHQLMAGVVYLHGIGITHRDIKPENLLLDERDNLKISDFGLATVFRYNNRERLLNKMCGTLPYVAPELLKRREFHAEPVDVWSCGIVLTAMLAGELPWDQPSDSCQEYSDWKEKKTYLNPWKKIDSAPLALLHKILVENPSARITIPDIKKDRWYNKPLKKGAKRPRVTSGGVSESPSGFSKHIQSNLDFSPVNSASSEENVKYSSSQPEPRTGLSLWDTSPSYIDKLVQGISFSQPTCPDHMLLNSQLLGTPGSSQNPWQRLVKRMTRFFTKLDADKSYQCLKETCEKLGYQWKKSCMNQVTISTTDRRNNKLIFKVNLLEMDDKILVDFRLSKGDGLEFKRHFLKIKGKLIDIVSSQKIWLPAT

[33] = target: STE20-like serine/threonine-protein kinase (Homo sapiens) (UniProt Q9H2G2); details: Compound concentration 1000.0 nM

CC(=O)N1CCC(c2ccc(C(=O)NC3=NCCN3)cc2C(F)(F)F)CC1 [BI 0054]
inactive: residual activity [1] 100% | residual activity [2] 98% | residual activity [3] 100% | residual activity [4] 85% | residual activity [5] 100% | residual activity [6] 84% | residual activity [7] 83% | residual activity [8] 100% | residual activity [9] 100% | residual activity [10] 100% | residual activity [11] 89% | residual activity [12] 99% | residual activity [13] 100% | residual activity [14] 100% | residual activity [15] 91% | residual activity [16] 100% | residual activity [17] 63% | inhibition [18] 4.92% | residual activity [19] 90% | residual activity [20] 100% | residual activity [21] 100% | residual activity [22] 73% | residual activity [23] 78% | residual activity [24] 87% | residual activity [25] 83% | residual activity [26] 100% | residual activity [27] 100% | residual activity [28] 92% | residual activity [29] 89% | residual activity [30] 100% | residual activity [31] 88% | residual activity [32] 100% | residual activity [33] 94%

CC(=O)N1CCC(c2ccc(C(=O)NC(=N)N)cc2C(F)(F)F)CC1 [BI 9627]
inactive: residual activity [1] 100% | residual activity [2] 91% | residual activity [3] 100% | residual activity [4] 100% | residual activity [5] 100% | residual activity [6] 73% | residual activity [7] 100% | residual activity [8] 100% | residual activity [9] 100% | residual activity [10] 100% | residual activity [11] 80% | residual activity [12] 100% | residual activity [13] 100% | residual activity [14] 100% | residual activity [15] 100% | residual activity [16] 100% | residual activity [17] 79% | inhibition [18] -0.34% | residual activity [19] 90% | residual activity [20] 95% | residual activity [21] 100% | residual activity [22] 100% | residual activity [23] 100% | residual activity [24] 100% | residual activity [25] 100% | residual activity [26] 100% | residual activity [27] 100% | residual activity [28] 93% | residual activity [29] 100% | residual activity [30] 96% | residual activity [31] 93% | residual activity [32] 95% | residual activity [33] 100%
